Bounds are passed on as bounds.

By IC50 is commonly meant the concentration that inhibits the measured activity by half. Low values mean greater potency, high ones weaker potency. As usually defined, the viability is a read-out of living cells in per cent, often relative to untreated cells.

The subject of data set [1] is hepatitis B virus transfected hepatoma cell lines, HepG 2.2.15 cells. Put plainly: Cytotoxicity assay, 2.2.15 cells. Format: cell-based, human. Conditions: 48 h of drug exposure.
Data set [2] has as its system transcriptional activity of hTERT. Put plainly: SEAP reporter assay of hTERT expression, PhTERT-SEAP (hTERT-BJ1). Format: cell-based, human. Conditions: PhTERT-SEAP (hTERT-BJ1). The protocol: (§1) Secreted alkaine phosphatase was used as the reporter system to monitor the transcriptional activity of hTERT. Here, about […] each were grown in 96-well plates and incubated at 37° C. for 24 h and changed with fresh media. Varying amounts of drugs were added and cells were incubated for another 24 h. Culture media were collected and heated at 65° C. for 10 min to inactivate heat-labile phosphatases. An equal amount of SEAP buffer (2 M diethanolamine, 1 mM MgCl2, and 20 mM […]) was added to the media and p-nitrophenyl phosphate was added to a final concentration of 12 mM. Absorptions at 405 nm were taken, and the rate of absorption increase is determined.
(§2) Culture media were changed every 3 days. […] The stable clones were selected using G418.
In general terms: Reporter assays use an easily measured gene product as a stand-in for the process of interest.

Data set [3] has the same test system. Nature of the data set: SEAP reporter assay of hTERT expression, PhTERT-SEAP (H1299). Format: cell-based, human. Conditions: PhTERT-SEAP(hTERT-H1299). The protocol:
as §1, §2

In data set [4] the test system is non-small-cell lung cancer cells H1299. Put plainly: MTT relative viability, PhTERT-SEAP (H1299) cells. Conditions: PhTERT-SEAP(hTERT-H1299).
Data set [5] has as its system hTERT-BJ1 cells. Put plainly: MTT relative viability, PhTERT-SEAP (hTERT-BJ1) cells. Conditions: PhTERT-SEAP (hTERT-BJ1).
Data set [6] relates to rat glioma C6 cells. Put plainly: Cytotoxicity assay (XTT colorimetric), C6 cells. The class given is cell-based. Conditions: 48 h of drug exposure. Background: Tetrazolium dyes change colour on reduction, which living cells bring about.
Data set [7] has as its system human hepatoma G2 cells. Put plainly: Cytotoxicity assay (XTT colorimetric), Hep G2. The class given is cell-based. Conditions: 48 h of drug exposure.
Data set [8] can be described thus: MTT relative viability, PhTERT-SEAP (H1299) cells. Conditions: human.
Data set [9] is described as follows: MTT relative viability, PhTERT-SEAP (hTERT-BJ1) cells. Conditions: human.
[10] abbreviates: hTERT-BJ1 cells stably transfected with PhTERT-SEAP reporter.
The mark [11] stands for this setting: hTERT-BJ1 cells, stable PhTERT-SEAP reporter clone.

Take “1,4-Bis(2,5-trifluorobenzoylamido)-9,10-anthracenedione [VI29]”: the IC50 in data set [1] was 2.2 µM; in data set [6], 2.82 µM; in data set [7] it was over 20 µM. The “Relative SEAP activity (%)” value in data set [2] (1.3 μM) turned out to be 16 ± 31.8%; in data set [2] (13 μM) it was 24 ± 21.5%; in data set [2] (139 μM), 26 ± 36.9%; in data set [3] (1.3 μM), 106 ± 6.7%; in data set [3] (13 μM) it was 105 ± 7.9%; in data set [3] (139 μM) it was 94 ± 10.2%. In addition, the SEAP/vibility is listed as 0.15 in [2] (1.3 μM); 0.28 in [2] (13 μM); 0.47 in [2] (139 μM); 1.07 in [3] (1.3 μM); 1.32 in data set [3] (13 μM); 2.56 in [3] (139 μM). For the same compound, the “Relative MTT viability (%)” value in [4] (1.3 μM) is recorded as 99 ± 8.6%; in [4] (13 μM), 79 ± 10.3%; in [4] (139 μM) it was 37 ± 8.8%; in [5] (1.3 μM), 107 ± 6.4%; in [5] (13 μM) it was 85 ± 4.8%; in data set [5] (139 μM), 56 ± 4.6%.

Regarding “1,4-Bis[3-(aminomethyl)cyclopropanepropionamido]-9,10-anthracenedione [VI37]”, the IC50 in [1] amounted to 1.71 µM; in data set [6], 0.4 µM; in [7], 0.32 µM. Also, the “Relative SEAP activity (%)” value in data set [2] (2.0 μM) came out at 97 ± 13.8%; in [2] (20 μM) it was 124 ± 22.8%; in data set [2] (204 μM), 105 ± 17.7%; in [3] (2.0 μM), 95 ± 4.2%; in data set [3] (20 μM), 91 ± 8.9%; in data set [3] (204 μM) it was 52 ± 4.4%. For the same compound, the SEAP/vibility is reported as 1.02 in data set [2] (2.0 μM); 1.48 in data set [2] (20 μM); 3.01 in data set [2] (204 μM); 0.88 in data set [3] (2.0 μM); 1.09 in data set [3] (20 μM); 0.77 in data set [3] (204 μM). Besides, the “Relative MTT viability (%)” value in data set [4] (2.0 μM) came to 108 ± 7.8%; in data set [4] (20 μM) it was 83 ± 1.6%; in data set [4] (204 μM), 67 ± 9.8%; in data set [5] (2.0 μM) it was 95 ± 2.5%; in [5] (20 μM), 84 ± 1.5%; in data set [5] (204 μM) it was 35 ± 3.7%.

For `O=C(Nc1ccc(NC(=O)c2ccccc2Cl)c2c1C(=O)c1ccccc1C2=O)c1ccccc1Cl` [VI2, 1,4-Bis(2-chlorobenzoylamido)-9,10-anthracenedione], the IC50 in [1], in [6] and in data set [7] was over 20 µM in each case. The “Relative SEAP activity (%)” value in data set [2] (1.9 μM) came out at 110 ± 20.1%; in data set [2] (19 μM) it was 96 ± 33.4%; in data set [2] (194 μM) it was 95 ± 36.6%; in data set [3] (1.9 μM) it was 108 ± 10.5%; in [3] (19 μM), 105 ± 7.7%; in [3] (194 μM), 100 ± 8.9%. Moreover, the SEAP/vibility in data set [2] (1.9 μM) is 0.95; in data set [2] (19 μM), 0.88; in [2] (194 μM), 1.00; in data set [3] (1.9 μM), 0.94; in data set [3] (19 μM), 1.47; in [3] (194 μM) it was 1.68. For the same compound, the “Relative MTT viability (%)” value in [4] (1.9 μM) is 114 ± 5.4%; in [4] (19 μM), 72 ± 3.6%; in [4] (194 μM) it was 60 ± 7.9%; in [5] (1.9 μM), 116 ± 7.7%; in data set [5] (19 μM), 109 ± 2.2%; in data set [5] (194 μM) it was 95 ± 2.0%.

With `CC(=O)Nc1ccc(NC(C)=O)c2c1C(=O)c1ccccc1C2=O` [VI3, 1,4-Bisacetamido-9,10-anthracenedione], the IC50 in [1] (Homo sapiens, HepG2.2.15) is over 20 µM; in data set [6] (Rattus norvegicus, C6), over 20 µM; in data set [7] (Homo sapiens, HepG2), over 20 µM. In addition, the SEAP/vibility in data set [2] (3.1 μM) is reported as 0.66; in [2] (31 μM), 0.87; in data set [2] (310 μM) it was 1.20; in [3] (3.1 μM), 0.78; in data set [3] (31 μM), 0.83; in data set [3] (310 μM) it was 2.16. The activity at 3.1 µM in [2] (Homo sapiens, 3.1 μM, read-out: Relative SEAP activity (%)) was 77 ± 12.4%; in data set [3] (Homo sapiens, NCI-H1299, 3.1 μM, read-out: Relative SEAP activity (%)) it was 85 ± 2.3%. For the same compound, the activity at 31 µM in data set [2] (Homo sapiens, 31 μM, read-out: Relative SEAP activity (%)) worked out at 83 ± 10%; in [3] (Homo sapiens, NCI-H1299, 31 μM, read-out: Relative SEAP activity (%)) it was 90 ± 3.3%. Besides, the activity at 310 µM amounted to 59 ± 15.2% in data set [2] (Homo sapiens, 310 μM, read-out: Relative SEAP activity (%)) and 80 ± 3.1% in [3] (Homo sapiens, NCI-H1299, 310 μM, read-out: Relative SEAP activity (%)). Besides, the viability at 48 h, 3.1 µM in data set [8] amounted to 109 ± 3.5%; in data set [9] (setting [10]) it was 117 ± 3%. Moreover, the viability at 48 h, 31 µM in [8] is 108 ± 3.6%; in data set [9] (setting [10]), 95 ± 11.9%. Besides, the viability at 48 h, 310 µM in data set [8] turned out to be 37 ± 1.3%; in data set [9] (setting [10]) it was 49 ± 8.9%.

As for `CCN(CC)CCC(=O)Nc1ccc(NC(=O)CCN(CC)CC)c2c1C(=O)c1ccccc1C2=O` [VI34, 1,4-Bis[3-(diethylamino)propionamido]-9,10-anthracenedione], the IC50 in data set [1] (Homo sapiens, HepG2.2.15) amounted to 0.28 µM; in data set [6] (Rattus norvegicus, C6) it was 0.9 µM; in data set [7] (Homo sapiens, HepG2), 0.49 µM. In addition, the SEAP/vibility in data set [2] (2.0 μM) was 0.03; in data set [2] (20 μM), −0.13; in data set [2] (203 μM), −0.37; in data set [3] (2.0 μM), 0.79; in [3] (20 μM) it was 4.63; in data set [3] (203 μM), 44.24. Also, the activity at 2 µM in data set [2] (Homo sapiens, 2.0 μM, read-out: Relative SEAP activity (%)) amounted to 2 ± 11.1%; in data set [3] (Homo sapiens, NCI-H1299, 2.0 μM, read-out: Relative SEAP activity (%)) it was 73 ± 2.7%. Also, the activity at 20 µM was -2% in data set [2] (Homo sapiens, 20 μM, read-out: Relative SEAP activity (%)) and 53 ± 2.7% in data set [3] (Homo sapiens, NCI-H1299, 20 μM, read-out: Relative SEAP activity (%)). The activity at 203 µM in data set [2] (Homo sapiens, 203 μM, read-out: Relative SEAP activity (%)) was -2%; in [3] (Homo sapiens, NCI-H1299, 203 μM, read-out: Relative SEAP activity (%)) it was 39 ± 0.8%. Moreover, the viability at 48 h, 2 µM in [8] turned out to be 92 ± 6.1%; in [9] (setting [11]), 83 ± 9.2%. In addition, the viability at 48 h, 20 µM in data set [8] came to 11 ± 2.5%; in data set [9] (setting [11]), 15 ± 3.9%. The viability at 48 h, 203 µM in [8] stood at 1 ± 2.4%; in [9] (setting [11]), 6 ± 3.9%.

These data come from US20050009924A1 (priority 2003, published 2005).
